Assays:
[1] = test system: primary mouse peritoneal cavity cells; experiment: Validation of macrophage selectivity (peritoneal cells, Raw 264.7, splenocytes); type: cell-based; details: 1 μM, 1 hour
Protocol: To validate the selectivity of CyNA-374, primary mouse peritoneal cavity cells were prepared. The identity of the mouse peritoneal cells was confirmed with CD11b macrophage antibody and flow cytometry. Next, the mouse peritoneal cells, Raw 264.7 cells and splenocytes were seeded in parallel. The following day, the cells were incubated with 1 μM CyNA-374 for 1 hour, then analyzed immediately using fluorescence microscopy.

[2] = test system: M1 macrophages (LPS-activated Raw 264.7 cells); experiment: Staining of activated (M1) macrophages; type: cell-based, mouse; details: 1 μM, 1 hour
Protocol: To determine if CyNA-374 could stain activated macrophages, Raw 264.7 cells were activated to M1 macrophages. Raw 264.7 cells were plated at 5×10^6 cells/well and allowed to adhere. In some experiments, the cells were then starved for 12 hours, meaning that cells were washed with phosphate-buffered saline (PBS) and incubated in DMEM supplemented with 1% penicillin/streptomycin for 12 hours, but without 10% FBS. After 12 hours, the cells were exposed to 60 ng/mL LPS and, at the 24-hour time point, the supernatant from the cells stimulated by LPS was collected for measurement of NO2 using the Griess reaction. The unstimulated Raw 264.7 cells produced approximately 8.5 μmol/L NO2, while the stimulated Raw 264.7 (or M1) cells produced approximately 45 μmol/L NO2. The M1 cells were seeded in parallel with the unactivated Raw 264.7 cells and the splenocytes. The cells were incubated with 1 μM CyNA-374 for 1 hour, then analyzed using fluorescence microscopy.

[3] = test system: mouse macrophage Raw 264.7 cell line; experiment: High-throughput cell imaging-based screen of CyNA library; details: Raw 264.7 vs mouse splenocytes
Protocol: In order to identify CyNA probes that could selectively stain mouse macrophage Raw 264.7 cell line (a mouse leukemic monocyte macrophage cell line), a library of CyNA compounds was assayed in a high-throughput cell imaging-based screen. The cell images were recorded using an automated imaging microscope system, IMAGEXPRESS MICRO™, and the fluorescent images were analyzed by cellular fluorescence intensity using METAXPRESS® image processing software.

[4] = Absorbance and fluorescence maximum wavelengths and quantum yields of the CyNA library; type: physicochemical
How it was run: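 Absorption and emission maxima and quantum yields of the 80-member amine-derivatized CyNA library were measured on a plate spectrophotometer.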

[5] = Primary screening of photostability of the CyNA library (time-course fluorescence, 8 h); type: physicochemical; details: 10 μM in HEPES 100 mM pH 7.4, 2% DMSO
How it was run: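 CyNA dyes at 10 μM in 100 mM HEPES pH 7.4 with 2% DMSO irradiated by xenon lamp for 8 h. Fluorescence (ex/em 790-820 nm) read every 10 min; stability given as F8h/Fo.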

[6] = Fluorescence and photostability of dye-labeled EGFR-IgG2a antibodies; type: physicochemical; details: conjugated to EGFR-IgG2a, vs ICG label
Protocol: To compare CyNE790 and ICG-sulfo-OSu for in vivo imaging studies, each reactive ester was conjugated to a monoclonal anti-epidermal growth factor receptor (EGFR) antibody.
100 μg of anti-EGFR-IgG2a were washed with PBS using a Microcon 3K filter (Millipore), and re-suspended in 100 μL of Na2CO3—NaHCO3 buffer (pH 9.2). 20 equiv of CyNE790 or ICG-sulfo-OSu (typically 1.0-1.2 μL of a 10 mM solution in DMSO) were added and the whole mixture was shaken in the dark for 2 hours. The excess dye was removed by washing with PBS (3×500 μL) using a Microcon 3K filter (Millipore) (3 rounds at 14,000 rpm at 4° C. for 60 min).
[…] in PBS (pH 7.3) were fixed in a glass coverslide, and irradiated with a diode laser (95 mW, 740 nm, time frame: 500 ms, no delay). Emission was recorded with a NIR-enhanced CCD camera (Andor Technology) adapted to an Eclipse Ti-U microscope (40× magnification, filter cube 750/800), and images were processed using the software NIS-Elements 3.10. The resulting values are represented as means (n=3), and fitted to a non-linear regression one-phase exponential decay (GraphPad Prism 5.0).

[7] = Photophysical properties of CyNE790 and ICG-sulfo-OSu; type: physicochemical
Protocol: FIG. 7A is an absorbance spectrum of 10-μM solutions of CyNA-414, CyNE790, ICG and ICG-sulfo-OSu in DMSO and PBS.
FIG. […]
After corroborating the spectral properties of CyNE790 as a fluorescent NIR dye, its applicability for protein conjugation was assessed by comparing CyNE790 to ICG-sulfo-OSu, the commercially available succinidimyl ester of ICG. […] However, the application of ICG to molecular imaging has been limited because its fluorescence is drastically quenched after protein conjugation.

[8] = Formation of aggregates: absorbance spectrum in DMSO vs PBS; type: physicochemical; details: spectral profile DMSO vs PBS
[9] = Photobleaching of CyNE790 and ICG-sulfo-OSu in PBS; type: physicochemical
Text: CyNE790 was also compared to ICG-sulfo-OSu, a commercially available succinimidyl ester of ICG (for chemical structures of CyNE790 and ICG-sulfo-OSu, see FIG. 8).

| Compound | staining by fluorescence microscopy [1] | staining of activated macrophages [2] | selective staining in cell imaging screen [3] | λabs, absorbance maximum wavelength ([4]; CyNA library) [nm] | λem, fluorescence maximum wavelength ([4]; CyNA library) [nm] | φ, quantum yield ([4]; in DMSO, Cardiogreen as standard) | F/Fo, fluorescent intensity at 8 hours vs 0 hours [5] [%] | max RFU, maximum relative fluorescence units [5] | fluorescence intensity and photostability after protein conjugation [6] | fluorescent properties compared to ICG and ICG-sulfo-OSu ([7]; 10 μM in PBS, 1% DMSO, excitation 760 nm, FIG. 7B) | Quantum Yield (DMSO) ([7]; DMSO, ICG as standard) [%] | Quantum Yield (aqueous media) ([7]; PBS pH 7.3, 0.1% DMSO) [%] | ε (aqueous media) ([7]; PBS pH 7.3, 0.1% DMSO) | formation of aggregates in aqueous solution [8] | photostability relative to ICG-sulfo-OSu ([9]; 10 μM in PBS pH 7.3, 1% DMSO) [fold] | maximum relative fluorescence units (rfu) ([9]; photobleaching experiments) |
| --- | --- | --- | --- | --- | --- | --- | --- | --- | --- | --- | --- | --- | --- | --- | --- | --- |
| CCCN1/C(=C/C=C2\CCCC(/C=C/C3=[N+](CCC)c4ccccc4C3(C)C)=C2N(Cc2ccccc2)C(C)=O)C(C)(C)c2ccccc21 [CyNA-374] | stained both the Raw 264.7 cells and the mouse peritoneal cells | stained both the unactivated Raw 264.7 cells and the M1 cells | selectively stained mouse macrophages, but not mouse splenocytes | 806 | 821 | 0.14 | 94 | 1224.6 |  |  |  |  |  |  |  |  |
| CCCN1/C(=C/C=C2\CCCC(/C=C/C3=[N+](CCC)c4ccccc4C3(C)C)=C2N(CCCN2CCCCC2C)C(=O)CCCC(=O)ON2C(=O)CCC2=O)C(C)(C)c2ccccc21 (stereo not shown) [CyNE790] |  |  |  |  |  |  |  |  | maintains its superior fluorescence intensity and photostability | superior fluorescent properties to both ICG and ICG-sulfo-OSu | 13 | 3.3 | 108,000 M^−1 · cm^−1 | little to no formation of aggregates | 15 | 708 |

Source: patent publication US9201014B2, “Development of photostable near-IR cyanine dyes for in vivo imaging” (National University of Singapore, priority 2010, dated 2015)
